Data from US6090834A, “Substituted oxazoles for the treatment of inflammation” (G.D. Searle & Co., priority 1998, dated 2000).

How the values were obtained:
carrageenan foot edema = assay: Rat Carrageenan Foot Pad Edema Test; format: in vivo, Male Sprague-Dawley rats; conditions: oral, 3 h after carrageenan; for inhibition in vivo at 10 mg/kg: Rattus norvegicus, 10 mg/kg body weight, read-out: RAT PAW EDEMA % Inhibition @ 10 mg/kg body weight
Protocol: Rat Carrageenan Foot Pad Edema Test
Male Sprague-Dawley rats were selected in each group so that the average body weight was as close as possible. Rats were fasted with free access to water for over sixteen hours prior to the test. […] One hour later a subplantar injection of 0.1 mL of 1% solution of carrageenan/sterile 0.9% saline was administered and the volume of the injected foot was measured with a displacement plethysmometer connected to a pressure transducer with a digital indicator. Three hours after the injection of the carrageenan, the volume of the foot was again measured.

COX-2 = COX-2 activity in vitro (PGE2 formed, ELISA); format: biochemical, human or murine; conditions: recombinant enzyme, arachidonic acid 10 μM, pH 8.0; read-out: COX II ID50
Protocol: (§1) Evaluation of COX I and COX II activity in vitro
(§2) The COX-2 inhibition activity of the compounds of this invention illustrated in the Examples was determined by the following methods. a. Preparation of recombinant COX baculoviruses
(§3) Recombinant COX-1 and COX-2 were prepared as described by Gierse et al, [J. Biochem., 305, 479-84 (1995)]. A 2.0 kb fragment containing the coding region of either human or murine COX-1 or human or murine COX-2 was cloned into a BamH1 site of the baculovirus transfer vector pVL1393 (Invitrogen) to generate the baculovirus transfer vectors for COX-1 and COX-2 in a manner similar to the method of D. R. O'Reilly et al (Baculovirus Expression Vectors: A Laboratory Manual (1992)). Recombinant baculoviruses were isolated by transfecting 4 μg of baculovirus transfer vector DNA into SF9 insect cells (2×10^8) along with 200 ng of linearized baculovirus plasmid DNA by the calcium phosphate method. See M. D. Summers and G. E. Smith, A Manual of Methods for Baculovirus vectors and Insect Cell Culture Procedures, Texas Agric. Exp. Station Bull. 1555 (1987). Recombinant viruses were purified by three rounds of plaque purification and high titer (10^7 -10^8 pfu/ml) stocks of virus were prepared. For large scale production, SF9 insect cells were infected in 10 liter fermentors (0.5×10^6 /ml) with the recombinant baculovirus stock such that the multiplicity of infection was 0.1. After 72 hours the cells were centrifuged and the cell pellet homogenized in Tris/Sucrose (50 mM: 25%, pH 8.0) containing 1% 3-[(3-cholamidopropyl)dimethylammonio]-1-propanesulfonate (CHAPS). The homogenate was centrifuged at 10,000×G for 30 minutes, and the resultant supernatant was stored at -80° C. before being assayed for COX activity. […]
(§4) b. Assay for COX-1 and COX-2 activity
(§5) COX activity was assayed as PGE2 formed/μg protein/time using an ELISA to detect the prostaglandin released. CHAPS-solubilized insect cell membranes containing the appropriate COX enzyme were incubated in a potassium phosphate buffer (50 mM, pH 8.0) containing epinephrine, phenol, and heme with the addition of arachidonic acid (10 μM). Compounds were pre-incubated with the enzyme for 10-20 minutes prior to the addition of arachidonic acid. Any reaction between the arachidonic acid and the enzyme was stopped after ten minutes at 37° C./room temperature by transferring 40 μl of reaction mix into 160 μl ELISA buffer and 25 μM indomethacin. The PGE2 formed was measured by standard ELISA technology (Cayman Chemical).

COX-1 = COX-1 activity in vitro (PGE2 formed, ELISA); format: biochemical, human or murine; conditions: recombinant enzyme, arachidonic acid 10 μM, pH 8.0; read-out: COX-1 ID50
Protocol: as §1, §2, §3, §4, §5

[1] = test system: hyperalgesic foot withdrawal; assay: Rat Carrageenan-induced Analgesia Test; format: in vivo, Male Sprague-Dawley rats; conditions: oral, hyperalgesic foot withdrawal 3 h after carrageenan
Protocol: Rat Carrageenan-induced Analgesia Test
The analgesia test using rat carrageenan was performed with materials, reagents and procedures essentially as described by Hargreaves, et al., (Pain, 32, 77 (1988)). Male Sprague-Dawley rats were treated as previously described for the Carrageenan Foot Pad Edema test. Three hours after the injection of the carrageenan, the rats were placed in a special plexiglass container with a transparent floor having a high intensity lamp as a radiant heat source, positionable under the floor. After an initial twenty minute period, thermal stimulation was begun on either the injected foot or on the contralateral uninjected foot. A photoelectric cell turned off the lamp and timer when light was interrupted by paw withdrawal. The time until the rat withdraws its foot was then measured. The withdrawal latency in seconds was determined for the control and drug-treated groups, and percent inhibition of the hyperalgesic foot withdrawal determined.

SMILES	inhibition in vivo at 10 mg/kg (carrageenan foot edema)	IC50 (COX-2)	IC50 (COX-1)	further results
CCOC(=O)Cc1nc(-c2ccc(F)cc2)c(-c2ccc(S(C)(=O)=O)cc2)o1 [Example 11]	42%			
CS(=O)(=O)c1ccc(-c2oc(CCc3ccccc3)nc2-c2ccc(F)cc2)cc1 [Example 1, 4-(4-fluorophenyl)-2-(2-phenylethyl)-5-(4-(methylsulfonyl)phenyl)oxazole]		< 100 nM	6.9 µM	RAT PAW EDEMA % Inhibition (* @ 20 mg/kg body weight) (carrageenan foot edema; 20 mg/kg body weight): 41%; ANALGESIA % Inhibition @ 20 mg/kg body weight [1]: 44%
CS(=O)(=O)c1ccc(-c2oc(COc3ccccc3)nc2-c2ccc(F)cc2)cc1 [Example 28, 4-(4-fluorophenyl)-5-[4-(methylsulfonyl)-phenyl]-2-phenoxymethyloxazole]	2%			
COc1ccc(-c2oc(C(F)(F)F)nc2-c2ccc(S(C)(=O)=O)cc2)cc1F [Example 70, 5-(3-fluoro-4-methoxyphenyl)-4-(4-methylsulfonylphenyl)-2-trifluoromethyloxazole]		< 100 nM	> 100 µM	RAT PAW EDEMA % Inhibition (1 @ 30 mg/kg body weight) (carrageenan foot edema): 46%
COc1ccc(Cc2nc(-c3ccc(F)cc3)c(-c3ccc(S(C)(=O)=O)cc3)o2)cc1 [Example 8, 4-(4-Fluorophenyl)-2-(4-methoxyphenyl)methyl-5-[4-methylsulfonylphenyl]oxazole]	12%			
CC(C)(C)c1nc(-c2ccc(F)cc2)c(-c2ccc(S(C)(=O)=O)cc2)o1 [Example 7, 2-(Tert-butyl)-4-(4-fluorophenyl)-5-[4-(methylsulfonyl)phenyl]oxazole]	24%			
CS(=O)(=O)c1ccc(-c2oc(CC(=O)O)nc2-c2ccc(F)cc2)cc1 [Example 16, 2-[4-(4-Fluorophenyl)-5-[4-(methylsulfonyl)phenyl]oxazol-2-yl]acetic acid]	26%			
CS(=O)(=O)c1ccc(-c2oc(-c3ccccc3)nc2-c2ccc(F)cc2)cc1 [Example 3, 4-(4-Fluorophenyl)-5-[4-(methylsulfonyl)phenyl]-2-phenyloxazole]	30%	< 100 nM	> 10 µM	
CS(=O)(=O)c1ccc(-c2oc(C(c3ccccc3)c3ccccc3)nc2-c2ccc(F)cc2)cc1 [Example 10, 2-Diphenylmethyl-4-(4-fluorophenyl)-5-[4-methylsulfonylphenyloxazole]]	18%			
CS(=O)(=O)c1ccc(-c2oc(COc3ccc(F)cc3)nc2-c2ccc(F)cc2)cc1 [Example 31, 4-(4-fluorophenyl)-5-[4-(methylsulfonyl)-phenyl]-2-[(4-fluorophenoxy)methyl]oxazole]	5%	< 100 nM	> 100 µM	
COc1nc(-c2ccccc2)c(-c2ccc(S(N)(=O)=O)cc2)o1 [Example 55, 4-[2-methoxy-4-phenyl-5-oxazolyl]benzenesulfonamide]		< 100 nM	9.7 µM	RAT PAW EDEMA % Inhibition (1 @ 30 mg/kg body weight) (carrageenan foot edema): 37%
CS(=O)(=O)c1ccc(-c2oc(COc3cccc(Cl)c3)nc2-c2ccc(F)cc2)cc1 [Example 30, 4-(4-fluorophenyl)-5-[4-(methylsulfonyl)phenyl]-2-(3-chlorophenoxy)methyloxazole]	4%	< 100 nM	> 100 µM	
CN(C)c1ccc(-c2nc(C(F)(F)F)oc2-c2ccc(S(N)(=O)=O)cc2)cc1 [Example 65, 4-[4-Dimethylaminophenyl-2-trifluoromethyl-5-oxazolyl]benzenesulfonamide]		< 100 nM	< 0.1 µM	
